Test results published in ChEMBL document CHEMBL1123746, “Synthesis of 5-beta-D-ribofuranosylnicotinamide and its N-methyl derivative. The isosteric and isoelectronic analogues of nicotinamide nucleoside” (1987).
Calls of active or inactive are those of the source. The rule behind the calls is not given here.

Experiments:
[1] = Compound tested for the inhibition of ADP-ribosylation in protein synthesis; Inactive; assay type: functional
[2] = Compound tested for the inhibition of IMP-dehydrogenase causing a profound depletion of GMP anf accumulation of IMP; Active; assay type: functional
MOLT-3 = assay: In vitro inhibitory activity against the growth of F-Molt-3 tumor cells at a concentration of 15.0 ug/mL; Inactive; assay type: functional, cell-based; conditions: Homo sapiens
CCRF-CEM = assay: In vitro inhibitory activity against the growth of CCRF-CEM tumor cells at a concentration of 13.0 ug/mL; Inactive; assay type: functional, cell-based; conditions: Homo sapiens
P815 = assay: In vitro inhibitory activity against the growth of P-815 tumor cells at a concentration of 16.0 ug/mL; Inactive; assay type: functional, cell-based; conditions: Mus musculus
HL-60 = assay: In vitro inhibitory activity against the growth of HL-60 tumor cells at a concentration of 24.0 ug/mL; Inactive; assay type: functional, cell-based; conditions: Homo sapiens

| Activity [2] | Structure (SMILES) | Activity [1] | other results |
| --- | --- | --- | --- |
|  | C[n+]1cc(C(N)=O)cc([C@@H]2O[C@H](COP(=O)([O-])OP(=O)(O)OC[C@@H]3O[C@H](n4cnc5c(N)ncnc54)[C@@H](O)[C@H]3O)[C@@H](O)[C@H]2O)c1 | inactive |  |
|  | NC(=O)c1cncc([C@@H]2O[C@H](COP(=O)(O)OP(=O)(O)OC[C@@H]3O[C@H](n4cnc5c(N)ncnc54)[C@@H](O)[C@H]3O)[C@@H](O)[C@H]2O)c1 | inactive |  |
| Active | NC(=O)c1csc([C@@H]2O[C@H](CO)[C@@H](O)[C@H]2O)n1 |  |  |
| Active | NC(=O)c1csc([C@H]2O[C@@H](COP(=O)(O)OP(=O)(O)OC[C@H]3O[C@@H](n4cnc5c(N)ncnc54)[C@H](O)[C@@H]3O)[C@H](O)[C@@H]2O)n1 |  |  |
|  | C[n+]1cc(C(N)=O)cc(C2O[C@H](CO)[C@@H](O)[C@H]2O)c1 (single isomer, unassigned) |  | inhibition (MOLT-3): inactive; inhibition (CCRF-CEM): inactive; inhibition (P815): inactive; inhibition (HL-60): inactive |
